Reference: ChEMBL document CHEMBL1201862, “PubChem BioAssay data set” (2004)
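Exposure lasted 48 hours, with cells grown in 96-well plates and compounds tested at five concentrations. At the GI50, growth is halved.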 Active and inactive are the calls of the source. No stated cut-off is given here; in the data, active = GI50 up to about 1.1 µM and inactive = higher.

Experiments:
Assay in all cases: inhibition of tumour cell growth, NCI panel, 48 h
786-0 = test system: 786-0
A498 = test system: A498
A549 = test system: A549
ACHN = test system: ACHN
BT-549 = test system: BT-549
CAKI-1 = test system: CAKI-1
CCRF-CEM = test system: CCRF-CEM
COLO 205 = test system: COLO 205
DU-145 = test system: DU-145
EKVX = test system: EKVX
HCC 2998 = test system: HCC 2998
HCT-116 = test system: HCT-116
HCT-15 = test system: HCT-15
HL-60 = test system: HL-60
HOP-62 = test system: HOP-62
HOP-92 = test system: HOP-92
HT-29 = test system: HT-29
Hs-578T = test system: Hs-578T
IGROV-1 = test system: IGROV-1
K562 = test system: K562
KM12 = test system: KM12
LOX IMVI = test system: LOX IMVI
M14 = test system: M14
MCF7 = test system: MCF7
MDA-MB-231 = test system: MDA-MB-231
MDA-MB-435 = test system: MDA-MB-435
MOLT-4 = test system: MOLT-4
Malme-3M = test system: Malme-3M
NCI-H226 = test system: NCI-H226
NCI-H23 = test system: NCI-H23
NCI-H460 = test system: NCI-H460
NCI-H522 = test system: NCI-H522
NCI/ADR-RES = test system: NCI/ADR-RES
OVCAR-3 = test system: OVCAR-3
OVCAR-4 = test system: OVCAR-4
OVCAR-8 = test system: OVCAR-8
PC-3 = test system: PC-3
RPMI-8226 = test system: RPMI-8226
RXF 393 = test system: RXF 393
SF-268 = test system: SF-268
SF-295 = test system: SF-295
SF-539 = test system: SF-539
SK-MEL-28 = test system: SK-MEL-28
SK-MEL-2 = test system: SK-MEL-2
SK-MEL-5 = test system: SK-MEL-5
SK-OV-3 = test system: SK-OV-3
SN12C = test system: SN12C
SNB-75 = test system: SNB-75
SR = test system: SR
SW-620 = test system: SW-620
T47D = test system: T47D
TK-10 = test system: TK-10
U-251 = test system: U-251
UACC-257 = test system: UACC-257
UACC-62 = test system: UACC-62
UO-31 = test system: UO-31
OVCAR-5 = test system: OVCAR-5
SNB-19 = test system: SNB-19

CCCCCCCCCc1cccc(N2C(N)=NC(N)=NC2(C)C)c1
GI50 (786-0): < 0.01 µM (active)
GI50 (A498): 1.24 µM (inactive)
GI50 (A549): < 0.01 µM (active)
GI50 (ACHN): < 0.0158 µM (active)
GI50 (BT-549): 1 µM (active)
GI50 (CAKI-1): 0.293 µM (active)
GI50 (CCRF-CEM): 0.197 µM (active)
GI50 (COLO 205): 0.0209 µM (active)
GI50 (DU-145): < 0.0307 µM (active)
GI50 (EKVX): < 0.0329 µM (active)
GI50 (HCC 2998): < 0.01 µM (active)
GI50 (HCT-116): < 0.01 µM (active)
GI50 (HCT-15): < 0.01 µM
GI50 (HL-60): < 0.01 µM (active)
GI50 (HOP-62): < 0.0237 µM (active)
GI50 (HOP-92): 1.58 µM (inactive)
GI50 (HT-29): < 0.01 µM (active)
GI50 (Hs-578T): 1.04 µM (active)
GI50 (IGROV-1): < 0.01 µM (active)
GI50 (K562): < 0.01 µM (active)
GI50 (KM12): 0.0139 µM (active)
GI50 (LOX IMVI): < 0.01 µM (active)
GI50 (M14): < 0.01 µM (active)
GI50 (MCF7): < 0.0204 µM (active)
GI50 (MDA-MB-231): 0.302 µM (active)
GI50 (MDA-MB-435): 0.0165 µM (active)
GI50 (MOLT-4): < 0.0273 µM (active)
GI50 (Malme-3M): 0.104 µM (active)
GI50 (NCI-H226): 1.26 µM (inactive)
GI50 (NCI-H23): < 0.01 µM (active)
GI50 (NCI-H460): < 0.01 µM (active)
GI50 (NCI-H522): 0.0451 µM (active)
GI50 (NCI/ADR-RES): 4.62 µM (inactive)
GI50 (OVCAR-3): 0.0547 µM (active)
GI50 (OVCAR-4): < 0.01 µM (active)
GI50 (OVCAR-8): < 0.01 µM (active)
GI50 (PC-3): < 0.0184 µM (active)
GI50 (RPMI-8226): 0.0112 µM (active)
GI50 (RXF 393): 1.95 µM (inactive)
GI50 (SF-268): < 0.023 µM (active)
GI50 (SF-295): 0.0148 µM (active)
GI50 (SF-539): 0.0339 µM (active)
GI50 (SK-MEL-28): 0.871 µM (active)
GI50 (SK-MEL-2): 0.993 µM (active)
GI50 (SK-MEL-5): 0.0277 µM (active)
GI50 (SK-OV-3): 1.62 µM (inactive)
GI50 (SN12C): 0.0198 µM (active)
GI50 (SNB-75): 0.735 µM (active)
GI50 (SR): < 0.01 µM (active)
GI50 (SW-620): < 0.01 µM (active)
GI50 (T47D): 0.528 µM (active)
GI50 (TK-10): 0.0304 µM (active)
GI50 (U-251): < 0.01 µM (active)
GI50 (UACC-257): 0.0611 µM (active)
GI50 (UACC-62): < 0.01 µM (active)
GI50 (UO-31): 1.93 µM (inactive)

CC1=NOC(C)(O)/C1=N/O (stereo not drawn)
GI50 (786-0): > 100 µM (inactive)
GI50 (A498): > 100 µM (inactive)
GI50 (A549): > 100 µM (inactive)
GI50 (ACHN): > 100 µM (inactive)
GI50 (BT-549): > 100 µM (inactive)
GI50 (CAKI-1): > 100 µM (inactive)
GI50 (CCRF-CEM): > 100 µM (inactive)
GI50 (COLO 205): > 100 µM (inactive)
GI50 (DU-145): > 100 µM (inactive)
GI50 (EKVX): > 100 µM (inactive)
GI50 (HCC 2998): > 100 µM (inactive)
GI50 (HCT-116): > 100 µM (inactive)
GI50 (HCT-15): > 100 µM
GI50 (HL-60): > 100 µM (inactive)
GI50 (HOP-62): > 100 µM (inactive)
GI50 (HOP-92): > 100 µM (inactive)
GI50 (HT-29): > 100 µM (inactive)
GI50 (Hs-578T): > 100 µM (inactive)
GI50 (IGROV-1): > 100 µM (inactive)
GI50 (K562): > 100 µM (inactive)
GI50 (KM12): > 100 µM (inactive)
GI50 (LOX IMVI): > 100 µM (inactive)
GI50 (M14): > 100 µM (inactive)
GI50 (MCF7): > 100 µM (inactive)
GI50 (MDA-MB-231): > 100 µM (inactive)
GI50 (MDA-MB-435): > 100 µM (inactive)
GI50 (MOLT-4): > 100 µM (inactive)
GI50 (Malme-3M): > 100 µM (inactive)
GI50 (NCI-H226): > 100 µM (inactive)
GI50 (NCI-H23): > 100 µM (inactive)
GI50 (NCI-H460): > 100 µM (inactive)
GI50 (NCI-H522): > 100 µM (inactive)
GI50 (NCI/ADR-RES): > 100 µM (inactive)
GI50 (OVCAR-3): > 100 µM (inactive)
GI50 (OVCAR-4): > 100 µM (inactive)
GI50 (OVCAR-5): > 100 µM (inactive)
GI50 (OVCAR-8): > 100 µM (inactive)
GI50 (PC-3): > 100 µM (inactive)
GI50 (RPMI-8226): > 100 µM (inactive)
GI50 (RXF 393): > 100 µM (inactive)
GI50 (SF-268): > 100 µM (inactive)
GI50 (SF-295): > 100 µM (inactive)
GI50 (SF-539): > 100 µM (inactive)
GI50 (SK-MEL-28): > 100 µM (inactive)
GI50 (SK-MEL-2): > 100 µM (inactive)
GI50 (SK-MEL-5): > 100 µM (inactive)
GI50 (SK-OV-3): > 100 µM (inactive)
GI50 (SN12C): > 100 µM (inactive)
GI50 (SNB-19): > 100 µM (inactive)
GI50 (SNB-75): > 100 µM (inactive)
GI50 (SW-620): > 100 µM (inactive)
GI50 (T47D): > 100 µM (inactive)
GI50 (TK-10): > 100 µM (inactive)
GI50 (U-251): > 100 µM (inactive)
GI50 (UACC-257): > 100 µM (inactive)
GI50 (UACC-62): > 100 µM (inactive)
GI50 (UO-31): > 100 µM (inactive)
